Assay results as given in EP4653003A1, “PHARMACEUTICAL COMPOSITION HAVING CERIUM COMPOUND CONTAINING TRIVALENT CERIUM AS ACTIVE INGREDIENT” (Applause Pharma Co., Ltd., priority 2023, dated 2024).

What was measured:
[1] = test system: adenine nephropathy model rats; assay: Uremic toxin lowering action by cerium chloride: indoxyl sulfate in whole blood by HPLC; format: in vivo; conditions: blood collected by dissection; feed of adenine combined with cerium chloride
Description: A solvent for precipitation (5.56 µmol/L 2-naphthalenesulfonic acid solution in acetonitrile) and a blood sample (whole blood) were mixed in a 1.5 mL polypropylene tube, the mixture was allowed to stand still at room temperature, and then centrifuged to cause solid-liquid separation, thereby obtaining a supernatant. A 10 mmol/L aqueous ammonium acetate solution was added to the thus obtained supernatant, and the mixture was centrifuged to obtain a supernatant. The operation above diluted the blood sample 50 times, with the final concentration of the thus-added 2-naphthalenesulfonic acid adjusted to 1 µmol/L.
Fig. 19 illustrates a diagram, with the indoxyl sulfate concentration in the blood sample collected by dissection plotted on the ordinate, and with the total mole amount of cerium contained in 100 g of feed plotted on the abscissa.

[2] = test system: adenine nephropathy model rats; format: in vivo, Slc:Wistar rat (male)
From the text: • · Rat: Slc:Wistar rat (male) delivered at 12 weeks of age (Japan SLC, Inc.) • · Powder feed: AIN-93G powder feed (Funabashi Farm Co., Ltd.) • · Feed for laboratory animal: Labo MR Stock (Nosan Corporation) • · Adenine: (Tokyo Chemical Industry Co., Ltd.) • · Cerium oxide dispersion: Cerium oxide dispersion prepared in [Preparation of Cerium Oxide Dispersion]
• (i) Weighed was 250 g of a powder feed, which was then kneaded with a kitchen machine. • (ii) After kneaded with a kitchen machine for 3 minutes, the feed adhered on the wall surface was scraped off, and then kneaded again for 3 minutes. Approximately 100 mL of hot water was then added evenly. • (iii) The feed was once put together by hands, and further kneaded with the kitchen machine until it became homogeneous. • (iv) The thus kneaded feed was shaped into a rod through a sausage machine. • (v) The thus shaped feed was cut into a cylindrical shape approximately 2.5 cm in diameter and 1.5 cm in thickness. • (vi) The thus shaped cylindrical feed was dried at 38°C in an incubator for two days. • (vii) The feed was weighed to estimate a proportion of residual water content, and dried until the proportion drops to 10% or below. • (viii) The prepared feed was put in a zipper bag, and stored in a refrigerator.
A special feed was prepared by modifying step (ii) for the normal group feed, as described below. (ii) (Ade): While keeping the content under kneading, 0.625 g of adenine was added in small portions, the content was kneaded with a kitchen machine for 3 minutes, the feed adhered on the wall surface was scraped off, and the content was kneaded again for 3 minutes. Approximately 100 mL of hot water was then added evenly.
A special feed was prepared by modifying steps (i) and (ii) for (2) Adenine Group Feed, as described below. • (i) (Ade + Dispersion (A)): Weighed was 246.1 g of the powder feed, which was then kneaded with a kitchen machine. • (ii) (Ade + Dispersion (A)): While keeping the content under kneading, 0.625 g of adenine was added in small portions, the content was kneaded with the kitchen machine for 3 minutes, the feed adhered on the wall surface was scraped off, and the content was kneaded again for 3 minutes. Next, while keeping the content under kneading, 32.7 g of cerium oxide dispersion was added in small portions, the content was kneaded with the kitchen machine for 3 minutes, the feed adhered on the wall surface was scraped off, and the content was kneaded again for 3 minutes. Approximately 70 mL of hot water was then added evenly. […]

[3] = blood collected by dissection on Day 28, substance mixed in adenine feed, trend against content in 100 g feed

cerium(III) chloride heptahydrate [cerium chloride]
indoxyl sulfate concentration in whole blood [1]: declining tendency | blood urea nitrogen (BUN) [2, 3]: decline as the cerium chloride content in the feed increased | serum creatinine (CRE) [2, 3]: decline as the cerium chloride content in the feed increased | serum phosphorus (IP) [2, 3]: decline as the cerium chloride content in the feed increased | alanine aminotransferase (ALT) ([2]; rat, in vivo): equivalent to that in the normal group
